A short description of series [1]: Bioavailability after administration by inhalation as powder inhalant. Conditions: in vivo, inhaled or intranasal; administered by inhalation as powder inhalant; based on the fine content of the formulation (FPD, fine particle dose, USP 24 Suppl. 2000).
The nature of series [2]: Determining the particle size by laser diffraction (Frauenhofer diffraction). Type of series: physicochemical. The source says: a) Determining the Particle Size by Laser Diffraction (Frauenhofer Diffraction):
Measuring method: In order to determine the particle size the powder is fed into a laser diffraction spectrometer using a dispersing unit. The median value X50 refers to the particle size below which 50% of the quantity of particles fall. The Q(5.8) value describes the percentage of particles which are less than 5.8 μm in size.
Measuring device: Laser diffraction spectrometer (HELOS), Messrs. Sympatec
Dispersing unit: RODOS/dispersing pressure: 3 bar
Focal length: 100 mm [measuring range: 0.9 . . . 175 μm]
Evaluation method: HRLD (V 4)

A short description of series [3]: Determining the specific surface area (multi point BET, nitrogen). The settings on record: spray-dried microparticles from ethanol solution; 16 point BET. The format is physicochemical. On the procedure:
b) Determining the Specific Surface Area:
Measuring method: The specific surface is determined by exposing the powder sample to a nitrogen atmosphere at different pressures. Cooling the sample causes the nitrogen molecules to be condensed on the surface of the particles. The quantity of condensed nitrogen is determined by means of the drop in pressure in the system and the surface of the sample is calculated by means of the surface nitrogen requirement and the weight of the sample.
Measuring device: Tri Star Multi Point BET, Messrs. Micromeritics
Heating station: VacPrep 061, Messrs. Micromeritics
Heating: approx. 12 h /40° C.

The nature of series [4]: Stability of the amorphous state. The format is physicochemical. Conditions: normal conditions (T<50° C., relative humidity<75%); microparticles.
The conditions of series [5]: conventional formulations; cited from earlier work.

In general, bioavailability refers to the share of a dose that reaches the circulation, judged against a reference dose that is usually intravenous. A higher bioavailability goes with much systemic uptake. In the case of `NCCCC[C@H](NC(=O)[C@@H](Cc1cc(Br)c(O)c(Br)c1)NC(=O)N1CCC(N2Cc3ccccc3NC2=O)CC1)C(=O)N1CCN(c2ccncc2)CC1` [A, 1-[N^2-[3,5-dibromo-N-[[4-(3,4-dihydro-2(1H)-oxoquinazolin-3-yl)-1-piperidinyl]carbonyl]-D-tyrosyl]-L-lysyl]-4-(4-pyridinyl)-piperazine], the bioavailability in series [1] is about 60%. The “Particle size X50” value in series [2] (spray-dried microparticles from 0.5 g (A) in 100 mL ethanol, median particle size, RODOS dispersing pressure 3 bar) came out at 1.2 μm. Moreover, the “Particle size Q(5.8)” value in series [2] (spray-dried microparticles from ethanol solution, percentage of particles less than 5.8 μm in size) is given as 99.5%. The “Specific surface area Sm” value in series [3] amounted to 21.5 m^2/g. In series [4], the “stability in the amorphous state” value is recorded as “stable in the amorphous state”. In addition, the oral bioavailability entry in series [5] was “very limited oral bioavailability”.

Source of the values: patent US20050043247A1, “Spray-dried amorphous BIBN 4096, process for preparing and the use thereof as inhalative” (Boehringer Ingelheim International GmbH, priority 2003, published 2005).
